From US20040001834A1, “Phospholipase A2 enzyme, antibodies and inhibitors thereto” (priority 2002, published 2004)
Entries after “also recorded” stand apart in the source; their conditions may differ.

Legend:
rPLA2 = rPLA2 enzyme activity assay with 2-[1-14C]AA-GPC substrate in the presence of inhibitors or divalent metal ions; format: biochemical, bovine; details: for effect on rPLA2 activity compared with cPLA2: comparison rPLA2 versus cPLA2; for inhibition of rPLA2 activity: substrate 2-[1-14C]AA-GPC, 10 min
Protocol: To verify the effect of known inhibitors on the activity of rPLA2, the various concentrations of inhibitors, i.e., DTT (dithiothtreitol), AACOCF3 (arachidonylfluoromethyl ketone) known as the cPLA2 inhibitor, mepacrine and methyl mercury, mercuric chloride known as the sPLA2 inhibitors were added to active pool from Mono Q column and reacted 2-[1-^14C]-AA-GPC as a substrate for 10 min. The comparative groups, cPLA2 and sPLA2, were subjected to in a same procedure.
To verify the effect of divalent metal ions on enzyme activity, to rPLA2 activity, various concentrations of divalent metal i.e., Zn^2+, Fe^2+, Cu^2+, Sr^2+, Ba^2+, Mn^2+ and Mg^2+ were added to active pool from Mono Q column and reacted 2-[1-^14C]-AA-GPC as a substrate for further 10 min. The comparative groups, cPLA2 and sPLA2, were subjected to in a same procedure.
To measure the functions of rPLA2 using inventive antibody, the supernatant obtained from above procedure was adopted to analyze the activity. PLA2 activity was measured in an assay system (100 μl) of 75 mM Tris-HCl (pH 7.5) containing […] of 2-[1-^14C]AA-GPC (110,000 cpm/4.5 nmol) mixed with 2-[1-^14C]AA-GPC, 4% glycerol, 5 mM CaCl2 and 0.2 % BSA.
Prepared rPLA2 and cPLA2 and each inhibitor dissolved in 5 μl of DMSO solution was added and reacted for 10 min at 37° C. maintaining the temperature. 2-[1-^14C]AA-PC as a substrate was added and reacted for 10 min at 37° C. maintaining the temperature.
To verify the mechanism of inhibition, Dixon plot was constructed (FIG. 31).

L929 cells = assay: [3H]AA release from labeled L929 cells; format: cell-based, murine; details: 50 μM of EA4, 20 min, then 2 μM A23187, 37 °C
Protocol: The Sepharose 4B-200 column-purified RBCs suspensions (approximately 1×10^9 cells/ml) were twice washed with serum-free MEM containing 1 mg/ml of fatty acid-free bovine serum albumin (BSA) and labeled for 1 hr with 1.5 mCi [^3H]AA (1 mCi/0.1 ml ethanol)/ml of the same medium. Murine L929 cells (1-2×10^6 cells/ml) were labeled for 6 hrs with 1.5 mCi [^3H]AA (1 mCi/0.1 ml ethanol)/ml of the same medium. Thereafter, cells were washed three times to remove all unincorporated [^3H]AA. The labeled cells were incubated in MEM containing 1 mg/ml BSA as a trap for the released [^3H]AA and then stimulated with vehicle (0.1 μl ethanol/ml medium) or 2 μM of calcium ionophore A23187 at 37° C. And a control group is treated with vehicle only without A23187 compound.
(§1) For analysis of [^3H] AA release, at each time of 0, 10, 30, 60 and 90 min after reaction between the cell and A23187, the RBCs were centrifuged as above, and each aliquot (200 μl) of the supernatants for the RBCs and each aliquot (100 μl ) of the conditioned media for the L929 cells was transferred to 2.5 ml of the scintillation counting solution and counted for radioactivity with a Packard Tri-carb liquid β-scintillation counter (Packard Instrument Co., Meriden, Conn.). […]
(§2) Cells were collected and centrifuged at the interval of 10 min. And the radioactivity was measured by scintillation counter.

bovine RBCs = assay: [3H]AA release from labeled bovine RBCs; format: cell-based; details: for inhibition of AA release by A23187 in bovine RBC: 50 μM of EA4, 20 min, then 2 μM A23187, 37 °C
Protocol: (§3) Human venous blood was collected in heparin (40 unit/ml) from some healthy volunteers among the Korean graduate students in our laboratory and bovine blood freshly collected in heparin (40 unit/ml) in a local slaughterhouse. After blood was centrifuged at 500×g for 20 min, the resulting supernatants of the platelet-rich plasma, the buffy coat and the leading edge of the packed RBCs were completely removed by aspiration. Sedimented RBCs, leukocytes, and platelets were re-suspended in a sterile buffer (50 mM Tris-HCl, pH 7.5, 1 mM EDTA, 0.12 M NaCl). This centrifugation and aspiration cycle was repeated six times taking care of removing leukocytes and platelets and the top 10% of the RBCs suspensions. Washed cell suspensions (10 ml) were subsequently depleted of residual leukocytes and platelets by filtration through a Sepharose 4B-200 column (20×2.5 cm) pre-equilibrated with sterile saline (0.9% w/v NaCl) as described above.
(§4) The Sepharose 4B-200 column-purified RBCs suspensions (approximately 1×10^9 cells/ml) were twice washed with serum-free MEM containing 1 mg/ml of fatty acid-free bovine serum albumin (BSA) and labeled for 1 hr with 1.5 mCi [^3H]AA (1 mCi/0.1 ml ethanol)/ml of the same medium. Murine L929 cells (1-2×10^6 cells/ml) were labeled for 6 hrs with 1.5 mCi [^3H]AA (1 mCi/0.1 ml ethanol)/ml of the same medium. Thereafter, cells were washed three times to remove all unincorporated [^3H]AA. […]
as §1, §2

human RBCs = assay: [3H]AA release from labeled human RBCs; format: cell-based; details: for inhibition of AA release by A23187 in human RBC: 50 μM of EA4, 20 min, then 2 μM A23187, 37 °C
Protocol: as §3, §4, §1, §2

cPLA2 = cPLA2 enzyme activity assay with inhibitors (comparative group); format: biochemical, porcine; details: substrate 2-[1-14C]AA-PC, 10 min, 37° C.
Source text: Stearoyl-2-[1-^14C]arachidonyl-sn-glycerol-3-phosphocholine (2-[1-^14C]AA-GPC) (55.3 mCi/mmol), 1-palmitoyl-2-[1-^14C]palmitoyl-sn-glycerol-3-phosphocholine (2-[1-^14C]PA-GPC) (55.6 mCi/mmol), 1-palmitoyl-2-[1-^14C]linoleoyl-sn-glycerol-3-phosphocholine (2-[1-^14C]LA-GPC) (55.9 mCi/mmol), 1-acyl-2-[1-^14C]arachidonyl-sn-glycerol-3-phosphoethanolamine (2-[1-^14C]AA-GPE) (55.1 mCi/mmol) and [^3H]arachidonic acid (AA) (204 Ci/mmol) ([^3H]AA) were purchased from the radio-chemical center, Amersham Life Science Ltd. (Buckinghamshire, UK). 1-Stearoyl-2-arachidonyl-sn-glycerol-3-phosphocholine (2-AA-GPC), dithiothreitol (DTT), A23187, 3,3′-diaminobenzidine (DAB), methylcellulose, erythropoietin and Sepharose 4B-200 gel filtration column were purchased from Sigma Co. (St. Louis, Mo.). Anti-human secretory 14 kDa sPLA2 antibody was purchased from Upstate Biotechnology, Inc. (Lake Placid, N.Y.). Goat anti-rabbit- and anti-mouse-alkaline phosphatase conjugates were purchased from Santa Cruz Biotechnology Inc., Santa Cruz, Calif. Group IV cytosolic PLA2 (cPLA2) was purified from porcine spleen and anti-cPLA2 polyclonal antibody was generated as described above(Kim, D. K., and Bonventure, J. V., Biochem. J., 294, 261-270, 1993). Group II secretory PLA2 (sPLA2) was partially purified from bovine platelets as described above (Hara, S et al., J. biochem., 105, 395-399, 1989). […]

[1] = 2 μM A23187, 37° C., 0-90 min, time-dependent

Compound: [Fe+2] [Fe^2+]
- activation of rPLA2 activity by divalent metal cation (rPLA2): activated

Compound: [Mg+2] [Mg^2+]
- activation of rPLA2 activity by divalent metal cation (rPLA2): activated

Compound: [Cl][Hg][Cl] [mercuric chloride, reference compound]
- effect on rPLA2 activity compared with cPLA2 (rPLA2): different profile from cPLA2
- inhibition of rPLA2 activity (rPLA2): not inhibited

Compound: CCN(CC)c1ccc(C2=C(Cl)C(=O)c3ncccc3C2=O)cc1 [EA4, 7-chloro-6-[4-(diethylamine)phenyl]-5,8-quinolinedione]
- inhibitory pattern on rPLA2 (rPLA2; Dixon plot): competitive; also recorded: competitively
- Ki (rPLA2; Dixon plot, competitive inhibition, read-out: inhibition constant (Ki) for rPLA2): 130 µM
- inhibition of rPLA2 activity (rPLA2): inhibited
- inhibition of AA release in L929 cells (L929 cells): inhibited
- inhibition of AA release by A23187 in bovine RBC (bovine RBCs): significantly inhibited; also recorded: inhibits the release
- inhibition of AA release by A23187 in human RBC (human RBCs): significantly inhibited
- inhibition of cPLA2 activity (cPLA2): inhibited; also recorded: inhibits the activity of cPLA2

Compound: O[C@H](CS)[C@H](O)CS (racemic) [DTT, dithiothreitol, reference compound]
- inhibition of rPLA2 activity (rPLA2): not inhibited

Compound: CCN(CC)CCCC(C)Nc1c2ccc(Cl)cc2nc2ccc(OC)cc12 (stereo not drawn) [mepacrine, reference compound]
- inhibition of rPLA2 activity (rPLA2): not inhibited

Compound: CC(C)(C)c1cc(C2=C(Cl)C(=O)c3ccccc3C2=O)cc(C(C)(C)C)c1O [TP1, 2-(3,5-Di-tert-butyl-4-hydroxyphenyl)-3-chloro-1,4-naphthalene dione, reference compound]
- inhibition of rPLA2 activity (rPLA2): inhibited that of cPLA2 only; also recorded: not inhibited
- inhibition of AA release in L929 cells (L929 cells): inhibited
- inhibition of AA release by A23187 in bovine RBC (bovine RBCs): not inhibited
- inhibition of AA release by A23187 in human RBC (human RBCs): not inhibited
- inhibition of cPLA2 activity (cPLA2): inhibited

Compound: [Sr+2] [Sr^2+]
- activation of rPLA2 activity by divalent metal cation (rPLA2): activated

Compound: [Mn+2] [Mn^2+]
- activation of rPLA2 activity by divalent metal cation (rPLA2): activated

Compound: [CH3][Hg][Cl] [methyl mercury, reference compound]
- effect on rPLA2 activity compared with cPLA2 (rPLA2): less effective activity than cPLA2
- inhibition of rPLA2 activity (rPLA2): not inhibited

Compound: CNc1ccc2oc(C[C@H]3O[C@@]4(CC[C@H]3C)O[C@H]([C@H](C)C(=O)c3ccc[nH]3)[C@H](C)C[C@H]4C)nc2c1C(=O)O [A23187, reference compound]
- release of [3H]AA from bovine RBCs (bovine RBCs; [1]): released
- release of [3H]AA from human RBCs (human RBCs; [1]): released

Compound: [Ba+2] [Ba^2+]
- activation of rPLA2 activity by divalent metal cation (rPLA2): activated

Compound: [Zn+2] [Zn^2+]
- activation of rPLA2 activity by divalent metal cation (rPLA2): activated

Compound: [Cu+2] [Cu^2+]
- activation of rPLA2 activity by divalent metal cation (rPLA2): activated
